Read-outs that look alike come from different tables or passages of the source.
Key:
[1] = molecular target: T1, recombinant An. coluzzii Coeae6g (Anopheles coluzzii, UniProt A0A6E8VQK1); experiment: Insecticide inhibition of α-NA hydrolysis by recombinant Coeae6g; type: biochemical; details: for IC50 (μΜ) (95% CI) of α-NA hydrolysis: 10 min pre-incubation, α-NA at Km, Sf9 homogenate expressing Coeae6g
T1 sequence (A0A6E8VQK1 1-582): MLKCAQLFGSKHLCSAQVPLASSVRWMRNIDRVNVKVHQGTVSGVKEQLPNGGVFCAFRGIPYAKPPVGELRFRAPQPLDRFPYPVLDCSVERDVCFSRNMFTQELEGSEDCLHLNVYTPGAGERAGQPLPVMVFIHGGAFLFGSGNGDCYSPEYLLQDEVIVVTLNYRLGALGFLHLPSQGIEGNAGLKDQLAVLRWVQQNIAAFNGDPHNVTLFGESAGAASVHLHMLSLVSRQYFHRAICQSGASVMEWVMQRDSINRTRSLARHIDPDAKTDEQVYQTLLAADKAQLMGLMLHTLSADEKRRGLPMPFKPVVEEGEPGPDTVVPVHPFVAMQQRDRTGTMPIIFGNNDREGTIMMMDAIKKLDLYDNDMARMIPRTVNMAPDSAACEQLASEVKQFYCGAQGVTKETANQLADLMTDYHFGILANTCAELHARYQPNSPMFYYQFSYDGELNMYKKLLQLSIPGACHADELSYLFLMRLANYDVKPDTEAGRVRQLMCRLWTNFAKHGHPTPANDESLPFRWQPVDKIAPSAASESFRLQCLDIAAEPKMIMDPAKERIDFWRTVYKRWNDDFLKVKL

[2] = system: A11 parental line mosquitoes; experiment: WHO tube/adult bioassays; type: in vivo, Anopheles gambiae; details: exposure for 10 and 15 min, three replicates
[3] = system: GAL4/UAS-AncCoeae6g mosquitoes; experiment: WHO tube/adult bioassays
[4] = system: GAL4/UAS-AngCoeae6g mosquitoes; experiment: WHO tube/adult bioassays; set-up: species or system Anopheles gambiae; details: in vivo
[5] = system: active serine hydrolases (FP-reactive bands, ~62–70 kDa) in An. gambiae homogenates; type: biochemical, Anopheles gambiae (Kisumu strain)
[6] = system: GAL4/UAS-AncCoeae6g mosquitoes; details: in vivo
[7] = system: whole extracts of An. gambiae Coeae6g overexpressing mosquitoes; experiment: Total esterase activity of whole mosquito extracts towards model substrates; type: biochemical, Anopheles gambiae
[8] = molecular target: T1, recombinant An. coluzzii Coeae6g; type: biochemical; details: for fold increased esterase activity compared to YFP-expressing and uninfected Sf9 cells: resuspended cell pellets expressing Coeae6g; for Km: read-out: Km (95% CI); for Km / Vmax (95% CI): substrate of recombinant Coeae6g (Sf9-Coeae6g)

SMILES: CNC(=O)Oc1cccc2c1OC(C)(C)O2 [Bendiocarb, bendiocarb]
- IC50 [1]: 7.27 µM

SMILES: CC1(C)[C@H](C(=O)O[C@H](C#N)c2cccc(Oc3ccccc3)c2)[C@@H]1C=C(Br)Br [Deltamethrin, deltamethrin]
- Mortality [2]: 100%
- IC50 [1]: > 450 µM
- IC50 (μΜ) (95% CI) of α-NA hydrolysis [1]: no inhibition
- Mortality ([3]; exposure for 10 and 15 min, three replicates): 100%

SMILES: CCOC(=O)CC(SP(=O)(OC)OC)C(=O)OCC (centres unmarked) [Malaoxon, malaoxon]
- IC50 [1]: 0.24 µM

SMILES: CCOC(=O)CC(SP(=S)(OC)OC)C(=O)OCC (centres unmarked) [Malathion, malathion]
- IC50 [1]: > 45 µM
- IC50 (μΜ) (95% CI) of α-NA hydrolysis [1]: No inhibition

SMILES: CCN(CC)c1nc(C)cc(OP(=S)(OC)OC)n1 [PM, pirimiphos-methyl]
- IC50 (μΜ) (95% CI) of α-NA hydrolysis [1]: No inhibition
- Mortality rate [4]: 67%
- Mortality rate ([3]; in vivo): 79%
- T-FP labelling of distinct ~90 kDa band [5]: not affected
- T-FP labelling of prominent bands at ~62–70 kDa [5]: markedly reduced
- IC50 ([5]; read-out: IC₅₀ (FP-TAMRA labelled ~62–70 kDa band intensity)): ~10.6 µM

SMILES: CC1(C)C(C=C(Cl)Cl)C1C(=O)OCc1cccc(Oc2ccccc2)c1 (centres unmarked) [Permethrin, permethrin]
- Mortality rate [6]: 81.8%
- IC50 [1]: 130 µM

SMILES: CNC(=O)Oc1ccccc1OC(C)C [Propoxur, propoxur]
- IC50 [1]: 3.52 µM

SMILES: CC(=O)Oc1ccc([N+](=O)[O-])cc1 [p-NPA, p-nitrophenyl acetate]
- fold higher total carboxylesterase activity than control parental mosquitoes [7]: 2.9 fold
- fold increased esterase activity compared to YFP-expressing and uninfected Sf9 cells [8]: 8-12 fold

SMILES: CC(=O)Oc1cccc2ccccc12 [α-NA, α-naphthyl acetate]
- Km [8]: 68.5 µM
- fold increased esterase activity compared to YFP-expressing and uninfected Sf9 cells [8]: 8-12 fold
- Vmax (95% CI) [8]: 307.7 nmol min^−1 mg total protein^−1

SMILES: CC(=O)Oc1ccc2ccccc2c1 [β-NA, β-naphthyl acetate]
- fold higher total carboxylesterase activity than control parental mosquitoes [7]: 2.3 fold
- Km [8]: 369 µM
- fold increased esterase activity compared to YFP-expressing and uninfected Sf9 cells [8]: 8-12 fold
- Vmax (95% CI) [8]: 253.0 nmol min^−1 mg total protein^−1

Reference: publication PMC12663294 (Nature Communications, 2025)
